# Source: patent US8461149B2, “Compounds useful as protein kinase inhibitors” (Vertex Pharmaceuticals Incorporated, priority 2007, dated 2013)
# pKi: −log10 of the molar value.
# Molecular target: PLK1 (Homo sapiens, UniProt P53350)
# Experiment: PLK1 inhibition assay (radioactive-phosphate incorporation)
# Format: biochemical
# Settings: 150 μM ATP, 300 μM peptide, 4 nM PLK1, 90 minutes, 25° C., read-out: Ki in the radioactive incorporation assay (Ki(app))
# Procedure: The compounds of the present invention are evaluated as inhibitors of human PLK kinase using the following assays.
# Compounds were screened for their ability to inhibit PLK1 using a radioactive-phosphate incorporation assay. Assays were carried out in a mixture of 25 mM HEPES (pH 7.5), 10 mM MgCl2, 0.1% BSA, and 2 mM DTT. Final substrate concentrations were 150 μM (350 μM for determining values of less than 1 nM) [γ-33P]ATP (115 mCi 33P ATP/mmol ATP, Amersham Pharmacia Biotech/Sigma Chemicals) and 300 μM (450 μM for determining values of <1 nM) peptide (KKKISDELMDATFADQEAK) (SEQ ID NO:1). Assays were carried out at 25° C. in the presence of 4 nM (1 nM for determining values of less than 1 nM) PLK1. An assay stock buffer solution was prepared containing all of the reagents listed above, with the exception of ATP and the test compound of interest. 30 μL of the stock solution was placed in a 96 well plate followed by addition of 2 μL of DMSO stock containing serial dilutions of the test compound (typically starting from a final concentration of 10 μM with 2-fold serial dilutions) in duplicate (final DMSO concentration 5%). The plate was pre-incubated for 10 minutes at 25° C. and the reaction initiated by addition of 8 μL [γ-33P]ATP (final concentration 150 μM (350 μM for determining values of less than 1 nM))).
# The reaction was stopped after 90 minutes (240 minutes for determining values of less than 1 nM) by the addition of 100 μL 0.14M phosphoric acid. A multiscreen phosphocellulose filter 96-well plate (Millipore, Cat. No. MAPHN0B50) was pretreated with 100 μL 0.2M phosphoric acid prior to the addition of 125 μL of the stopped assay mixture. The plate was washed with 200 μL 0.2M phosphoric acid for 4 times. After drying, 100 μL Optiphase ‘SuperMix’ liquid scintillation cocktail (Perkin Elmer) was added to the well prior to scintillation counting (1450 Microbeta Liquid Scintillation Counter, Wallac).
# After removing mean background values for all of the data points, Ki(app) data were calculated from non-linear regression analysis of the initial rate data using the Prism software package (GraphPad Prism version 3.0cx for Macintosh, GraphPad Software, San Diego Calif., USA).
# PLK1, sequence (P53350 whole entry): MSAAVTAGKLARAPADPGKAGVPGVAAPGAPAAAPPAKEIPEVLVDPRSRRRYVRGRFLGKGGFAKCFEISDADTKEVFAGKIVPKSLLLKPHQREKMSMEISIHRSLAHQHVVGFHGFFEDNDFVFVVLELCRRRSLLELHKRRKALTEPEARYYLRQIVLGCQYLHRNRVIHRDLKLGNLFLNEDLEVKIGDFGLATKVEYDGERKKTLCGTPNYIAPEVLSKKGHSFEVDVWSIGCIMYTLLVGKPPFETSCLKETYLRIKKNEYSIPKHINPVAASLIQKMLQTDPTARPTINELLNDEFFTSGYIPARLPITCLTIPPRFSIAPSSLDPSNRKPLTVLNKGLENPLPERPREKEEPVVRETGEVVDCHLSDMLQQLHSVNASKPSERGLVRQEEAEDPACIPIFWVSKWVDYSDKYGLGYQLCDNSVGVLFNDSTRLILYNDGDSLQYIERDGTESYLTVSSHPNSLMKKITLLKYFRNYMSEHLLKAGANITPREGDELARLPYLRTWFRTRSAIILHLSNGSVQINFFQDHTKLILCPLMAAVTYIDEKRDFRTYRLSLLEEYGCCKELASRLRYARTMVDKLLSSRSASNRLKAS
row,pKi,SMILES
1,8.00 to 9.00,"COc1cc(C(=O)NC2CC2)ccc1Nc1ncc2c(n1)N([C@@H]1CCC(F)(F)C1)CC(C)(C)C(=O)N2C [Compound I-1, (R)—N-cyclopropyl-4-(9-(3,3-difluorocyclopentyl)-5,7,7-trimethyl-6-oxo-6,7,8,9-tetrahydro-5H-pyrimido[4,5-b][1,4]diazepin-2-ylamino)-3-methoxybenzamide]"
2,8.00 to 9.00,"COc1cc(C(=O)NC2CC2)ccc1Nc1ncc2c(n1)N([C@@H]1CCC(F)(F)C1)CC1(CC1)C(=O)N2C [Compound I-4, (R)—N-cyclopropyl-4-(9′-(3,3-difluorocyclopentyl)-5′-methyl-6′-oxo-5′,6′,8′,9′-tetrahydrospiro[cyclopropane-1,7′-pyrimido[4,5-b][1,4]diazepine]-2′-ylamino)-3-methoxybenzamide]"
3,8.00 to 9.00,"COc1cc(C(=O)N[C@@H]2CCC(F)(F)C2)ccc1Nc1ncc2c(n1)N([C@@H]1CCC(F)(F)C1)CC1(CC1)C(=O)N2C [Compound I-5, N-((R)-3,3-difluorocyclopentyl)-4-(9′-((R)-3,3-difluorocyclopentyl)-5′-methyl-6′-oxo-5′,6′,8′,9′-tetrahydrospiro[cyclopropane-1,7′-pyrimido[4,5-b][1,4]diazepine]-2′-ylamino)-3-methoxybenzamide]"

# Same assay, conditions: conditions for values of less than 1 nM: 350 μM ATP, 450 μM peptide, 1 nM PLK1, 240 minutes, 25° C., read-out: Ki in the radioactive incorporation assay (Ki(app))
row,SMILES,pKi
1,"COc1cc(C(=O)N[C@@H]2CC[C@@H](F)C2)ccc1Nc1ncc2c(n1)N([C@@H]1CCC(F)(F)C1)CC(C)(C)C(=O)N2C [Compound I-2, 4-(9-((R)-3,3-difluorocyclopentyl)-5,7,7-trimethyl-6-oxo-6,7,8,9-tetrahydro-5H-pyrimido[4,5-b][1,4]diazepin-2-ylamino)-N-((1R,3R)-3-fluorocyclopentyl)-3-methoxybenzamide]",> 9.00
2,"COc1cc(C(=O)N[C@@H]2CCC(F)(F)C2)ccc1Nc1ncc2c(n1)N([C@@H]1CCC(F)(F)C1)CC(C)(C)C(=O)N2C [Compound I-3, N-((R)-3,3-difluorocyclopentyl)-4-(9-((R)-3,3-difluorocyclopentyl)-5,7,7-trimethyl-6-oxo-6,7,8,9-tetrahydro-5H-pyrimido[4,5-b][1,4]diazepin-2-ylamino)-3-methoxybenzamide]",> 9.00

# Further lines, results first:
row,pKi,SMILES
1,> 9.00,"CCNC(=O)c1ccc(Nc2ncc3c(n2)N([C@@H]2CCC(F)(F)C2)[C@H](CC)c2nncn2-3)c(OC)c1 [Compound I-6, 4-((R)-5-((R)-3,3-difluorocyclopentyl)-4-ethyl-4,5-dihydro-[1,2,4]triazolo[4,3-f]pteridin-7-ylamino)-N-ethyl-3-methoxybenzamide]"
2,> 9.00,"CC[C@@H]1c2nncn2-c2cnc(Nc3ccc(C(=O)NC4CC4)cc3OC)nc2N1[C@@H]1CCC(F)(F)C1 [Compound I-7, N-cyclopropyl-4-((R)-5-((R)-3,3-difluorocyclopentyl)-4-ethyl-4,5-dihydro-[1,2,4]triazolo[4,3-f]pteridin-7-ylamino)-3-methoxybenzamide]"
3,> 9.00,"CCNC(=O)c1ccc(Nc2ncc3c(n2)N([C@@H]2CCC(F)(F)C2)[C@H](CC)C(=O)N3C)c(OC)c1 [Compound I-8, 4-((R)-8-((R)-3,3-difluorocyclopentyl)-7-ethyl-5-methyl-6-oxo-5,6,7,8-tetrahydropteridin-2-ylamino)-N-ethyl-3-methoxybenzamide]"
4,> 9.00,"CC[C@@H]1C(=O)N(C)c2cnc(Nc3ccc(C(=O)NC4CC4)cc3OC)nc2N1[C@@H]1CCC(F)(F)C1 [Compound I-9, N-cyclopropyl-4-((R)-8-((R)-3,3-difluorocyclopentyl)-7-ethyl-5-methyl-6-oxo-5,6,7,8-tetrahydropteridin-2-ylamino)-3-methoxybenzamide]"
